Results from patent publication EP0533925A1, “OPTICAL ISOMER OF R-FORM OF DIPHENYL ETHER DERIVATIVE AND HERBICIDE CONTAINING THE SAME AS ACTIVE INGREDIENT” (TEIJIN LIMITED, priority 1990, dated 1991).
Counter-ions that a name gives are not always drawn.

Tests used:
Assay type in all cases: in vivo
[1] = system: Broad-leaved Plants (d, e, f, g, h, i, j); experiment: Average withering rate, single and mixed solutions (Test Example 11); set-up: unit: %; conditions: 3 weeks
From the text: (§1) The alphabetical symbols in Tables 2 and 3 represent the following plants, respectively: a: Digitaria adscendens b: Setaria viridis c: Sorghum halepense d: Chenopodium album var. centrorubrum e: Amaranthus mangostanus f: Astragalus sinicus g: Abutilon theophrosti h: Solanum nigrum i: Xanthium strumarium j: Soybean; Glycine max k: Corn; Zea mays Table 2
(§2) In each run, the compound (1) according to the invention only or the N-phosphonomethylglycine derivatives (117) only or the mixture thereof were used as in the Test Example 1 to prepare single solutions and mixed solutions by using various amounts of each components. Each of the preparations were applied to the plants as in Test Example 1 and the cultivation was continued for 3 weeks without additive application thereafter.
(§3) The results were analyzed by Tammes's method [Tammes, P.M.L.: Neth. J. Plant Path., 70, 73-80 (1964)] which was cited in "Zasso Kenkyuu" (in Japanese) (Weed Studies) 14, 12-18 […] and shown in Fig. 1 and Fig. 2.
(§4) Fig. 1 represents the average withering rate of 4 kinds of narrow-leaved plants (a, b, c, and k), while Fig. 2 gives withering rate of 7 kinds of broad-leaved plants (d, e, f, g, h, i j). As these figures show clearly, the curve binding the points of 95 % effect is inside the one of the synergistic effect, thus it can be concluded that the mixed preparation has synergistic effect.

[2] = system: Narrow-leaved Plants (a, b, c, k); experiment: as above; set-up: unit: %; conditions: 3 weeks
From the text: as §1, §2, §3, §4

Abutilon theophrosti = experiment: Herbicidal activity, spray of diphenyl ether with N-phosphonomethylglycine derivative (Test Examples 6 to 10); set-up: key: 0 means the state where the plants are as sound as before the application of the active compound; 1, 2, 3 and 4 mean varying degrees of the enfeebled state of the plants between 0 and 5; 1, 2, 3 and 4 mean varying degrees of the enfeebled state of the plants between 0 and 5; 1, 2, 3 and 4 mean varying degrees of the enfeebled state of the plants between 0 and 5; 1, 2, 3 and 4 mean varying degrees of the enfeebled state of the plants between 0 and 5; 5 is the state where the plants are withered or killed by application of the active compound; conditions: Application 0.375 Kg/ha (117) alone
Description: (§5) In these examples, all parts means parts by weight, unless otherwise noted. The herbicidal activity was evaluated on a scale of 6 degrees. In other words, 0 means the state where the plants are as sound as before the application of the active compound, while 5 is the state where the plants are withered or killed by application of the active compound, and 1, 2, 3 and 4 mean varying degrees of the enfeebled state of the plants between 0 and 5.
(§6) In each run, the diphenyl ether derivatives and the N-phosphonomethylglycine derivatives shown in Table 3 (in the indicated mixing ratios) was dissolved in 16 parts by volume of a mixture of water and acetone (1 : 1 by volume; containing 0.05 % of a nonionic surfactant, Sorpol-2680) in the indicated mixing ratio, respectively, to prepare spray solutions.
(§7) The plants tested were grown in vinyl resin pots (diameter 10 cm) filled with soil in a green house for 2 to 3 weeks after germination from seeds or tubers.
(§8) The spray solution was applied to the plants so that the total volume sprayed became 4 cc/100 cm², and the herbicidal activity was examined.
as §1

Astragalus sinicus = experiment: as above; set-up: key: 0 means the state where the plants are as sound as before the application of the active compound; 1, 2, 3 and 4 mean varying degrees of the enfeebled state of the plants between 0 and 5; 1, 2, 3 and 4 mean varying degrees of the enfeebled state of the plants between 0 and 5; 1, 2, 3 and 4 mean varying degrees of the enfeebled state of the plants between 0 and 5; 1, 2, 3 and 4 mean varying degrees of the enfeebled state of the plants between 0 and 5; 5 is the state where the plants are withered or killed by application of the active compound; conditions: Application 0.375 Kg/ha (117) alone
Description: as §5, §6, §7, §8, §1

Digitaria adscendens = experiment: as above; set-up: key: 0 means the state where the plants are as sound as before the application of the active compound; 1, 2, 3 and 4 mean varying degrees of the enfeebled state of the plants between 0 and 5; 1, 2, 3 and 4 mean varying degrees of the enfeebled state of the plants between 0 and 5; 1, 2, 3 and 4 mean varying degrees of the enfeebled state of the plants between 0 and 5; 1, 2, 3 and 4 mean varying degrees of the enfeebled state of the plants between 0 and 5; 5 is the state where the plants are withered or killed by application of the active compound; conditions: Application 0.375 Kg/ha (117) alone
Description: as §5, §6, §7, §8, §1

Sorghum halepense = experiment: as above; set-up: key: 0 means the state where the plants are as sound as before the application of the active compound; 1, 2, 3 and 4 mean varying degrees of the enfeebled state of the plants between 0 and 5; 1, 2, 3 and 4 mean varying degrees of the enfeebled state of the plants between 0 and 5; 1, 2, 3 and 4 mean varying degrees of the enfeebled state of the plants between 0 and 5; 1, 2, 3 and 4 mean varying degrees of the enfeebled state of the plants between 0 and 5; 5 is the state where the plants are withered or killed by application of the active compound; conditions: Application 0.375 Kg/ha (117) alone
Description: as §5, §6, §7, §8, §1

Soybean; Glycine max = experiment: as above; set-up: key: 0 means the state where the plants are as sound as before the application of the active compound; 1, 2, 3 and 4 mean varying degrees of the enfeebled state of the plants between 0 and 5; 1, 2, 3 and 4 mean varying degrees of the enfeebled state of the plants between 0 and 5; 1, 2, 3 and 4 mean varying degrees of the enfeebled state of the plants between 0 and 5; 1, 2, 3 and 4 mean varying degrees of the enfeebled state of the plants between 0 and 5; 5 is the state where the plants are withered or killed by application of the active compound; conditions: Application 0.375 Kg/ha (117) alone
Description: as §5, §6, §7, §8, §1

Xanthium strumarium = experiment: as above; set-up: key: 0 means the state where the plants are as sound as before the application of the active compound; 1, 2, 3 and 4 mean varying degrees of the enfeebled state of the plants between 0 and 5; 1, 2, 3 and 4 mean varying degrees of the enfeebled state of the plants between 0 and 5; 1, 2, 3 and 4 mean varying degrees of the enfeebled state of the plants between 0 and 5; 1, 2, 3 and 4 mean varying degrees of the enfeebled state of the plants between 0 and 5; 5 is the state where the plants are withered or killed by application of the active compound; conditions: Application 0.375 Kg/ha (117) alone
Description: as §5, §6, §7, §8, §1

[3] = Compound (1) 0.008 kg a.i./ha, Compound (117) 0 kg a.i./ha
[4] = Compound (1) 0.016 kg a.i./ha, Compound (117) 0 kg a.i./ha
[5] = Compound (1) 0.031 kg a.i./ha, Compound (117) 0 kg a.i./ha
[6] = Compound (1) 0 kg a.i./ha, Compound (117) 0.094 kg a.i./ha
[7] = Compound (1) 0 kg a.i./ha, Compound (117) 0.188 kg a.i./ha
[8] = Compound (1) 0 kg a.i./ha, Compound (117) 0.375 kg a.i./ha
[9] = Compound (1) 0 kg a.i./ha, Compound (117) 0.750 kg a.i./ha

SMILES: COC(=O)C(C)Oc1cc(Oc2ccc(C(F)(F)F)cc2Cl)ccc1C#N (stereo not drawn) [Compound (1), Methyl α-[2-cyano-5-(2-chloro-4-trifluoromethylphenoxy)phenoxy]propionate]
- Average Withering Rates of Broad-leaved Plants (d, e, f, g, h, i, j) [1, 3]: 80
- Average Withering Rates of Broad-leaved Plants (d, e, f, g, h, i, j) [1, 4]: 80
- Average Withering Rates of Broad-leaved Plants (d, e, f, g, h, i, j) [1, 5]: 96
- Average Withering Rates of Narrow-leaved Plants (a, b, c, k) [2, 3]: 33
- Average Withering Rates of Narrow-leaved Plants (a, b, c, k) [2, 4]: 47
- Average Withering Rates of Narrow-leaved Plants (a, b, c, k) [2, 5]: 80
- Average Withering Rates of Narrow-leaved Plants (a, b, c, k) ([2]; Compound (1) 0.063 kg a.i./ha, Compound (117) 0 kg a.i./ha): 93

SMILES: O=C(O)CNCP(=O)(O)O [Compound (117), N-phosphonomethylglycine isopropylammonium salt]
- herbicidal activity, Plants g (Abutilon theophrosti; 3 days after treatment): 0
- herbicidal activity, Plants g (Abutilon theophrosti; 7 days after treatment): 1
- herbicidal activity, Plants g (Abutilon theophrosti; 14 days after treatment): 1
- herbicidal activity, Plants f (Astragalus sinicus; 3 days after treatment): 0
- herbicidal activity, Plants f (Astragalus sinicus; 7 days after treatment): 0
- herbicidal activity, Plants f (Astragalus sinicus; 14 days after treatment): 0
- herbicidal activity, Plants a (Digitaria adscendens; 3 days after treatment): 3
- herbicidal activity, Plants a (Digitaria adscendens; 7 days after treatment): 1
- herbicidal activity, Plants a (Digitaria adscendens; 14 days after treatment): 3
- herbicidal activity, Plants c (Sorghum halepense; 3 days after treatment): 0
- herbicidal activity, Plants c (Sorghum halepense; 7 days after treatment): 0
- herbicidal activity, Plants c (Sorghum halepense; 14 days after treatment): 1
- herbicidal activity, Plants j (Soybean; Glycine max; 3 days after treatment): 0
- herbicidal activity, Plants j (Soybean; Glycine max; 7 days after treatment): 0
- herbicidal activity, Plants j (Soybean; Glycine max; 14 days after treatment): 0
- herbicidal activity, Plants i (Xanthium strumarium; 3 days after treatment): 0
- herbicidal activity, Plants i (Xanthium strumarium; 7 days after treatment): 0
- herbicidal activity, Plants i (Xanthium strumarium; 14 days after treatment): 1
- Average Withering Rates of Broad-leaved Plants (d, e, f, g, h, i, j) [1, 6]: 4
- Average Withering Rates of Broad-leaved Plants (d, e, f, g, h, i, j) [1, 7]: 36
- Average Withering Rates of Broad-leaved Plants (d, e, f, g, h, i, j) [1, 8]: 55
- Average Withering Rates of Broad-leaved Plants (d, e, f, g, h, i, j) [1, 9]: 80
- Average Withering Rates of Narrow-leaved Plants (a, b, c, k) [2, 6]: 50
- Average Withering Rates of Narrow-leaved Plants (a, b, c, k) [2, 7]: 87
- Average Withering Rates of Narrow-leaved Plants (a, b, c, k) [2, 8]: 87
- Average Withering Rates of Narrow-leaved Plants (a, b, c, k) [2, 9]: 95
